From patent US20160115167A1, “BMP INHIBITORS AND METHODS OF USE THEREOF” (THE BRIGHAM AND WOMEN'S HOSPITAL, INC., priority 2013, published 2016)

System: BMP7 induced pSMAD1/5/8 in BMPR2−/− and TGF-β1 induced pSMAD2
Assay: Western blot, BMP7 vs TGF-beta induced pSMAD in PASMCs
Type: cell-based, mice
Details: versus LDN-193189; BMPR2-deficient and wild type PASMCs; FIGS. 5b and 5c
Procedure: C2C12 […] cells stably transfected with BMP responsive element from the Idl promoter fused to luciferase reporter gene (BRE-Luc) and human embryonic kidney 293T cells stably transfected with the TGF-β responsive element from the PAI-1 promoter fused to luciferase reporter gene (CAGA-Luc) were cultured in DMEM (Life Technologies) supplemented with 10% FBS, L-glutamine, and pen/strep at 37° C. and 10% CO2. HepG2 human hepatoma cells (ATCC) were cultured in EMEM (Life Technologies) supplemented with 10% FBS, L-glutamine, and pen/strep at 37° C. and 10% CO2. C2C12 […] (ATCC) were cultured in DMEM (Life Technologies) supplemented with 10% FBS, L-glutamine, and pen/strep at 37° C. and 10% CO2. […]
Both WT and BMPR2^del/del PASMCs were seeded in 12-well plates (Falcon®; BD Biosciences) at 75% confluency (˜375,000 cells in 480 μL per well). […] The phosphorylation state of downstream effector proteins (pSMAD1/5/8 and pSMAD2 for BMP and TGF-β respectively) was measured by western blotting performed 30 minutes after ligand stimulation. Western blots were analyzed using ImageJ with positive controls at 100% ligand induced phospho-SMAD and negative controls being subtracted as background. […]

In the case of c1cc(-c2cnn3cc(-c4ccc(N5CCNCC5)cc4)cnc23)c2cccnc2c1 [LDN-212854], the “selectivity, BMP7 induced pSMAD1/5/8 versus TGF-β1 induced pSMAD2” value is reported as “improved selectivity”.
